Test results from ChEMBL document CHEMBL5113509, “Synthesis and evaluation of 3'- and 4'-substituted cyclohexyl noviomimetics that modulate mitochondrial respiration” (Bioorg Med Chem, 2022).
Calls of active or inactive are those of the source. The calls are words filed in the database; no cut-off is given here.

What was measured:
N2a [1] = assay: Cytoprotective activity against mouse N2a cells assessed as increase in mitochondrial ATP production at 100 to 1000 nM measured by Seahorse extracellular flux analyzer based assay; assay type: functional, cell-based; details: dose 100-1000 nM
Homo sapiens = organism: Homo sapiens; assay: Disruption of HSP90 alpha (unknown origin) and PPID (unknown origin) at 50 uM measured after 1 hr by AlphaLISA assay relative to control
N2a [2] = assay: Cytoprotective activity against mouse N2a cells assessed as decrease in mitochondrial ATP production at 100 to 1000 nM measured by Seahorse extracellular flux analyzer based assay; assay type: functional, cell-based; details: dose 100-1000 nM

| Activity (Homo sapiens) [%] | SMILES | Activity (N2a [1]) | Activity (N2a [2]) |
| --- | --- | --- | --- |
| > 50 | CC(=O)NCCc1ccc(O[C@H]2CC[C@H](Oc3ccccc3)CC2)cc1-c1cccc(F)c1 | Active |  |
| < 50 | CC(=O)NCCc1ccc(O[C@H]2CC[C@H](N(C)c3ccccc3)CC2)cc1-c1cccc(F)c1 | Active |  |
| > 50 | CC(=O)NCCc1ccc(O[C@H]2CC[C@H](S(=O)(=O)Cc3ccccc3)CC2)cc1-c1cccc(F)c1 | Active |  |
| > 50 | CC(=O)NCCc1ccc(O[C@H]2CC[C@@H](Oc3ccc(Cl)cc3)CC2)cc1-c1cccc(F)c1 |  | Active |
| > 80 | CC(=O)NCCc1ccc(O[C@H]2CC[C@@H](Nc3ccccc3)CC2)cc1-c1cccc(F)c1 | Active |  |
| < 50 | CC(=O)NCCc1ccc(O[C@@H]2CCC[C@@H](N(C)c3ccccc3)C2)cc1-c1cccc(F)c1 | Active |  |
|  | O[C@H]1CC[C@@H](Oc2cccc(Cl)c2)CC1 | Active |  |
| > 50 | CC(=O)NCCc1ccc(O[C@H]2CCC[C@@H](OCc3ccccc3)C2)cc1-c1cccc(F)c1 | Active |  |
| < 50 | CC(=O)NCCc1ccc(O[C@H]2CC[C@H](Nc3ccccc3)CC2)cc1-c1cccc(F)c1 | Active |  |
| > 50 | CC(=O)NCCc1ccc(O[C@H]2CC[C@@H](Cc3ccccc3)CC2)cc1-c1cccc(F)c1 | Active |  |
| > 50 | CC(=O)NCCc1ccc(O[C@@H]2CCC[C@@H](Cc3ccccc3)C2)cc1-c1cccc(F)c1 | Active |  |
|  | O[C@H]1CC[C@H](Oc2ccc(Cl)cc2)CC1 | Active |  |
| > 50 | CC(=O)NCCc1ccc(O[C@H]2CC[C@H](C(F)(F)Cc3ccccc3)CC2)cc1-c1cccc(F)c1 | Active |  |
| > 50 | CC(=O)NCCc1ccc(O[C@H]2CC[C@H](S(=O)(=O)c3ccccc3)CC2)cc1-c1cccc(F)c1 | Active |  |
| > 50 | CC(=O)NCCc1ccc(O[C@H]2CC[C@@H](C(F)(F)Cc3ccccc3)CC2)cc1-c1cccc(F)c1 | Active |  |
| < 50 | CC(=O)NCCc1ccc(O[C@H]2CC[C@@H](N(C)c3ccccc3)CC2)cc1-c1cccc(F)c1 | Active |  |
| > 50 | CC(=O)NCCc1ccc(O[C@H]2CC[C@@H](Oc3ccc(Cl)cc3Cl)CC2)cc1-c1cccc(F)c1 | Active |  |
| > 50 | CC(=O)NCCc1ccc(O[C@H]2CC[C@H](Oc3cccc(Cl)c3)CC2)cc1-c1cccc(F)c1 |  | Active |
| > 50 | CC(=O)NCCc1ccc(O[C@H]2CC[C@H](CCc3ccccc3)CC2)cc1-c1cccc(F)c1 | Active |  |
|  | CC(=O)NCCc1ccc(O[C@H]2CC[C@@H](OCc3ccccc3)CC2)cc1-c1cccc(F)c1 | Active |  |
| > 80 | CC(=O)NCCc1ccc(O[C@H]2CCC[C@@H](Nc3ccccc3)C2)cc1-c1cccc(F)c1 | Active |  |
| > 50 | CC(=O)NCCc1ccc(O[C@H]2CC[C@H](Oc3ccccc3Cl)CC2)cc1-c1cccc(F)c1 | Active |  |
| > 50 | CC(=O)NCCc1ccc(O[C@H]2CC[C@@H](S(=O)(=O)c3ccccc3)CC2)cc1-c1cccc(F)c1 | Active |  |
| > 50 | CC(=O)NCCc1ccc(O[C@H]2CCC[C@@H](Cc3ccccc3)C2)cc1-c1cccc(F)c1 | Active |  |
| < 50 | CC(=O)NCCc1ccc(O[C@H]2CC[C@H](SCc3ccccc3)CC2)cc1-c1cccc(F)c1 | Active |  |
| > 50 | CC(=O)NCCc1ccc(O[C@H]2CCC[C@@H](Sc3ccccc3)C2)cc1-c1cccc(F)c1 | Active |  |

| Activity (Homo sapiens) [%] | SMILES | Activity (N2a [1]) | Activity (N2a [2]) |
| --- | --- | --- | --- |
| > 50 | CC(=O)NCCc1ccc(O[C@H]2CCC[C@@H](CCc3ccccc3)C2)cc1-c1cccc(F)c1 | Active |  |
|  | O[C@H]1CC[C@@H](Oc2ccc(Cl)cc2Cl)CC1 | Active |  |
| < 50 | CC(=O)NCCc1ccc(O[C@@H]2CCC[C@@H](OCc3ccccc3)C2)cc1-c1cccc(F)c1 | Active |  |
| > 50 | CC(=O)NCCc1ccc(O[C@H]2CC[C@H](Oc3ccc(Cl)cc3)CC2)cc1-c1cccc(F)c1 |  | Active |
|  | CC(=O)NCCc1ccc(O[C@H]2CC[C@@H](SCc3ccccc3)CC2)cc1-c1cccc(F)c1 | Active |  |
|  | O[C@H]1CC[C@H](Oc2cccc(Cl)c2)CC1 | Active |  |
|  | CC(=O)NCCc1ccc(OC2CCC(Oc3ccccc3)[C@H](O)[C@@H]2O)cc1-c1cccc(F)c1 (stereo partly drawn) | Active |  |
|  | O[C@H]1CC[C@@H](Oc2ccc(Cl)cc2)CC1 | Active |  |
| > 50 | CC(=O)NCCc1ccc(O[C@H]2CC[C@H](Sc3ccccc3)CC2)cc1-c1cccc(F)c1 | Active |  |
| > 50 | CC(=O)NCCc1ccc(O[C@H]2CC[C@@H](Sc3ccccc3)CC2)cc1-c1cccc(F)c1 | Active |  |
| > 50 | CC(=O)NCCc1ccc(O[C@H]2CC[C@@H](Oc3ccccc3Cl)CC2)cc1-c1cccc(F)c1 | Active |  |
|  | CC(=O)NCCc1ccc(O[C@H]2CCC[C@@H](SCc3ccccc3)C2)cc1-c1cccc(F)c1 | Active |  |
| > 50 | CC(=O)NCCc1ccc(O[C@H]2CC[C@H](Oc3ccc(Cl)cc3Cl)CC2)cc1-c1cccc(F)c1 | Active |  |
| > 50 | CC(=O)NCCc1ccc(O[C@H]2CC[C@@H](S(=O)(=O)Cc3ccccc3)CC2)cc1-c1cccc(F)c1 | Active |  |
| < 50 | CC(=O)NCCc1ccc(O[C@H]2CCC[C@@H](N(C)c3ccccc3)C2)cc1-c1cccc(F)c1 | Active |  |
|  | O[C@H]1CC[C@H](Oc2ccc(Cl)cc2Cl)CC1 | Active |  |
| > 50 | CC(=O)NCCc1ccc(O[C@H]2CC[C@@H](Oc3cccc(Cl)c3)CC2)cc1-c1cccc(F)c1 |  | Active |
| > 50 | CC(=O)NCCc1ccc(O[C@@H]2CCC[C@@H](CCc3ccccc3)C2)cc1-c1cccc(F)c1 | Active |  |
| > 50 | CC(=O)NCCc1ccc(O[C@@H]2CCC[C@@H](Oc3ccccc3)C2)cc1-c1cccc(F)c1 | Active |  |
| > 50 | CC(=O)NCCc1ccc(O[C@H]2CC[C@@H](Oc3ccccc3)CC2)cc1-c1cccc(F)c1 | Active |  |
| > 50 | CC(=O)NCCc1ccc(O[C@H]2CC[C@H](Cc3ccccc3)CC2)cc1-c1cccc(F)c1 | Active |  |
| > 50 | CC(=O)NCCc1ccc(O[C@@H]2CCC[C@@H](SCc3ccccc3)C2)cc1-c1cccc(F)c1 | Active |  |
| < 50 | CC(=O)NCCc1ccc(O[C@@H]2CCC[C@@H](Nc3ccccc3)C2)cc1-c1cccc(F)c1 | Active |  |
|  | CO[C@@H]1[C@@H](OC(N)=O)[C@@H](O)[C@H](Oc2ccc3c(O)c(NC(=O)c4ccc(O)c(CC=C(C)C)c4)c(=O)oc3c2C)OC1(C)C | Active |  |
| > 50 | CC(=O)NCCc1ccc(O[C@@H]2CCC[C@H](Sc3ccccc3)C2)cc1-c1cccc(F)c1 | Active |  |
| > 50 | CC(=O)NCCc1ccc(O[C@H]2CCC[C@@H](Oc3ccccc3)C2)cc1-c1cccc(F)c1 | Active |  |
